In ChEMBL document CHEMBL4184140, “Expanding the tetrahydroquinoline pharmacophore” (Bioorg Med Chem Lett, 2017) one finds Activity and IC50 data, which are given here for 15 compounds.

Test [1] concerns IMR-32. As to the kind of experiment: Neurotrophic activity in human IMR32 cells assessed as length of neurite outgrown after 96 hrs by bright field microscopic analysis. The class given is functional, cell-based.
For a further test, the system named is MCF7. Briefly: Antiproliferative activity against human MCF7 cells. The class given is functional, cell-based.
The next test concerns DU-145. Briefly: Antiproliferative activity against human DU145 cells. The class given is functional, cell-based.
The test system of the next test is A549. Briefly: Antiproliferative activity against human A549 cells. The test is classed as functional, cell-based.
The subject of the next test is HepG2. Briefly: Antiproliferative activity against human HepG2 cells. The test is classed as functional, cell-based.
The subject of test [2] is IMR-32. Briefly: Cytotoxicity against human IMR32 cells after 48 hrs by SRB assay. The class given is cell-based. To be noted: IMR-32, 48 h. (In general: The SRB assay estimates cell density from bound dye.)
Test [3] deals with IMR-32. As to the kind of experiment: Neurotrophic activity in human IMR32 cells assessed as increase in BDNF mRNA level at 10 uM by RT-PCR analysis. The test is classed as functional, cell-based.
Test [4] has as its system IMR-32. Briefly: Neurotrophic activity in human IMR32 cells assessed as increase in NGF mRNA level at 10 uM by RT-PCR analysis. The class given is functional, cell-based.
In test [5] the test system is IMR-32. As to the kind of experiment: Neurotrophic activity in human IMR32 cells assessed as increase in BDNF protein level at 10 uM by Western blot method. The class given is functional, cell-based. In general terms: Immunoblotting shows a protein as a band on a membrane.
For test [6], the system named is IMR-32. As to the kind of experiment: Neurotrophic activity in human IMR32 cells assessed as increase in NGF protein level at 10 uM by Western blot method. The test is classed as functional, cell-based.
Test [7] deals with IMR-32. As to the kind of experiment: Neurotrophic activity in human IMR32 cells assessed as induction of differentiation at 10 uM after 96 hrs by bright filed microscopic method. The test is classed as functional, cell-based.
In test [8] the test system is IMR-32. As to the kind of experiment: Neurotrophic activity in human IMR32 cells assessed as induction of differentiation at 50 uM after 96 hrs by bright filed microscopic method. The test is classed as functional, cell-based.
Test [9] has as its system IMR-32. As to the kind of experiment: Neurotrophic activity in human IMR32 cells assessed as appearance of neurites at 1 to 10 uM after 96 hrs by bright field microscopic analysis. The class given is functional, cell-based.
For test [10], the system named is IMR-32. Briefly: Neurotrophic activity in human IMR32 cells assessed as induction of differentiation at 1 uM after 96 hrs by bright filed microscopic method. The class given is functional, cell-based.

Calls of active or inactive are those of the source. No cut-off for these calls is given here.

Broadly, the IC50 is the concentration needed to halve the response being measured. A high value points to weaker potency. In the case of `CC(=O)N1c2ccccc2[C@@H]2[C@@H](C[C@@H]3O[C@H]23)[C@H]1c1ccccc1`, the Activity entry in the test on IMR-32 [1] was “Dose-dependent effect”. Besides, the outcome in the test on MCF7, in the test with DU-145, in the test with A549 and in the test with HepG2 was inactive. The compound also yielded an IC50 with IMR-32 [2] of more than 100 µM. For the same compound, the result in the test on IMR-32 [3], with IMR-32 [4], with IMR-32 [5], in the test on IMR-32 [6] and in the test on IMR-32 [7] was Active.
As for `COC(=O)C[C@@H]1[C@H](C(=O)OC)c2ccccc2N(C(C)=O)[C@@H]1c1ccccc1`, in the test on IMR-32 [1], the Activity result is “Dose-dependent effect”. Besides, the outcome in the test on MCF7, with DU-145, in the test on A549 and in the test on HepG2 was inactive. The IC50 in the test on IMR-32 [2] came to 80.6 µM. Moreover, the outcome in the test with IMR-32 [3], in the test on IMR-32 [4], with IMR-32 [5], with IMR-32 [6], in the test with IMR-32 [7] and with IMR-32 [8] was Active.
Consider `CC(=O)N1c2cc([N+](=O)[O-])ccc2[C@@H]2[C@@H](C[C@@H]3O[C@H]23)[C@H]1c1ccccc1`, for which the outcome with MCF7, in the test on DU-145, in the test with A549 and with HepG2 was inactive. In addition, in the test with IMR-32 [2], the IC50 turned out to be 56 µM. In addition, in the test on IMR-32 [7], the outcome was Active.
Turning to `CC(=O)N1c2cc([N+](=O)[O-])ccc2[C@H]2C=CC[C@H]2[C@H]1c1ccccc1`, the Activity entry in the test on IMR-32 [1] is “Dose-dependent effect”. The outcome in the test on MCF7, in the test on DU-145, in the test on A549 and in the test with HepG2 was inactive. The compound further came in with an IC50 with IMR-32 [2] of more than 100 µM. Moreover, the result in the test with IMR-32 [9], in the test with IMR-32 [3], in the test with IMR-32 [4], in the test on IMR-32 [5] and in the test on IMR-32 [6] was Active.
In the case of `O[C@@H]1[C@@H]2c3ccccc3N[C@H](c3cccc(Br)c3)[C@@H]2C[C@@H]1O`, the Activity result with IMR-32 [1] is “Dose-dependent effect”. Further, the result with MCF7, in the test with DU-145, in the test with A549 and in the test on HepG2 was inactive. In the test on IMR-32 [2], this compound had an IC50 of more than 100 µM. Moreover, the result in the test on IMR-32 [9], in the test on IMR-32 [3], in the test on IMR-32 [4], in the test on IMR-32 [5], with IMR-32 [6] and with IMR-32 [7] was Active.
Regarding `C1=C[C@@H]2c3ccccc3N[C@H](c3ccccc3)[C@@H]2C1`, the Activity entry with IMR-32 [1] was “Dose-dependent effect”. Besides, the outcome in the test on MCF7, in the test on DU-145, with A549 and with HepG2 was inactive. For the same compound, the IC50 in the test with IMR-32 [2] is more than 100 µM. Also, the outcome in the test with IMR-32 [3], in the test with IMR-32 [4], in the test on IMR-32 [5], in the test with IMR-32 [6], in the test with IMR-32 [10] and in the test with IMR-32 [7] was Active.
With `CC(=O)N1c2ccccc2[C@H]2[C@@H](O)[C@H](N=[N+]=[N-])C[C@H]2[C@H]1c1ccccc1`, the Activity entry with IMR-32 [1] was “Dose-dependent effect”. Besides, the outcome in the test on MCF7, in the test on DU-145, in the test with A549 and in the test on HepG2 was inactive. In the test with IMR-32 [2], this compound registered a 50% inhibitory concentration (IC50) of more than 100 µM. The result with IMR-32 [3], in the test with IMR-32 [4], with IMR-32 [5], with IMR-32 [6] and in the test with IMR-32 [7] was Active.
Turning to `CC(=O)N1c2ccccc2[C@H]2[C@@H](O)[C@H](N=[N+]=[N-])C[C@H]2[C@H]1c1ccc(Cl)cc1`, the outcome in the test on MCF7, in the test on DU-145, with A549, in the test with HepG2 and in the test with IMR-32 [9] was inactive. The IC50 in the test with IMR-32 [2] is more than 100 µM.
Consider `Cc1ccccc1[C@H]1Nc2ccccc2[C@H]2C=CC[C@H]21`, for which the result with MCF7, with DU-145, in the test on A549, in the test on HepG2 and with IMR-32 [9] was inactive. Moreover, the IC50 in the test with IMR-32 [2] came out at 87.2 µM.
Take `O=[N+]([O-])c1ccc2c(c1)N[C@H](c1ccccc1)[C@@H]1CC=C[C@H]21`: the result in the test with MCF7, in the test with DU-145, in the test on A549, in the test with HepG2 and with IMR-32 [9] was inactive. In addition, the concentration for half-maximal inhibition (IC50) with IMR-32 [2] is more than 100 µM.
As to `O[C@@H]1[C@@H]2c3ccc(F)cc3N[C@H](c3ccccc3)[C@@H]2C[C@@H]1O`, the result in the test on MCF7, with DU-145, in the test on A549, in the test on HepG2 and in the test with IMR-32 [9] was inactive. The compound further showed a half-maximal inhibitory concentration (IC50) with IMR-32 [2] of more than 100 µM.
For the compound `CC(=O)N1c2ccccc2[C@H]2C=CC[C@H]2[C@H]1c1ccccc1C`, the outcome with MCF7, in the test with DU-145, in the test on A549, with HepG2 and in the test on IMR-32 [9] was inactive. Also, the IC50 in the test with IMR-32 [2] is more than 100 µM.
For `CC(=O)N1c2ccccc2[C@H]2[C@@H](O)[C@H](N=[N+]=[N-])C[C@H]2[C@H]1c1cccc(Br)c1`, the result in the test on MCF7, in the test on DU-145, with A549, in the test on HepG2 and in the test with IMR-32 [9] was inactive. This compound also registered a half-maximal inhibitory concentration (IC50) in the test with IMR-32 [2] of more than 100 µM.
`O[C@@H]1[C@@H]2c3ccccc3N[C@H](c3ccccc3)[C@@H]2C[C@@H]1O`: the outcome in the test with MCF7, with DU-145, with A549, with HepG2 and in the test on IMR-32 [9] was inactive. In the test on IMR-32 [2], this compound came in with an IC50 of more than 100 µM.
Turning to `C=CCO[C@@H]1[C@@H]2c3ccccc3N(C(C)=O)[C@H](c3ccc(Cl)cc3)[C@@H]2C[C@H]1N=[N+]=[N-]`, the outcome with MCF7, in the test with DU-145, in the test on A549, in the test with HepG2 and in the test with IMR-32 [9] was inactive. The same compound gave an IC50 in the test on IMR-32 [2] of 66.5 µM.
